Source: BindingDB's records for doi:10.1021/ml200206z (2011)

Molecular target: T1, 5-hydroxytryptamine receptor 2C (Homo sapiens, UniProt P28335)
T1 sequence (P28335 whole entry): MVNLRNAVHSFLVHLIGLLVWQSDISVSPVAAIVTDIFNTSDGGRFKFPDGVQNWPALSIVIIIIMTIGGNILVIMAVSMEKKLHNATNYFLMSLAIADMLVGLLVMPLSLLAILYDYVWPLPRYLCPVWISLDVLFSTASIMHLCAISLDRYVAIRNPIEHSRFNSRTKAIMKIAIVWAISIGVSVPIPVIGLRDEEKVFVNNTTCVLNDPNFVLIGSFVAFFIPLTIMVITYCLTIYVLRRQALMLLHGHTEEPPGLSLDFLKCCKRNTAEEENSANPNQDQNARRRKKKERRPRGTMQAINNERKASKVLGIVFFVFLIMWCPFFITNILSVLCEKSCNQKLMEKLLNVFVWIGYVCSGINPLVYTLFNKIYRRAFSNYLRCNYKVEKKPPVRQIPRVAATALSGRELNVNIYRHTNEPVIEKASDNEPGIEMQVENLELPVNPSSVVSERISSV
Assay: Agonist activity at human 5HT2C receptor expressed in HEK293 cells assessed as calcium flux measured every sec for 3 mins by FLIPR assay

**Q.** Which EC50 does the source give for NC[C@H]1C[C@@H]1c1ccccc1OCC1CC1 here?
**A.** 120 nM
